Source: ChEMBL document CHEMBL1126980, “New, potent anthelmintic and acaricidal agents: 4-deoxy-4-thio-substituted avermectin derivatives” (Bioorg Med Chem Lett, 1993)
Values after ≈ are worked out from the molar mass of the structure shown.

How the values were obtained:
Caenorhabditis elegans = assay: Tested in vitro for the biological efficacy using Caenorhabditis elegans binding assay; format: functional, organism-based
Tetranychus urticae = assay: Tested for acaricidal efficacy using a Tetranychus urticae (two-spotted spider mite, TSSM) contact assay; format: functional; design: concentration or dose not given beside the values
[1] = test system: Trichostrongylus colubriformis; assay: Tested in vivo for the biological efficacy using Trichostrongylus colubriformis gerbil assay; format: functional
Artemia salina = assay: Tested in vitro for the biological efficacy using Artemia salina (brine shrimp) immobilization assay; format: functional
Ovis aries [2] = assay: Tested for the anthelmintic efficacy against Cooperia curticei at 0.1 mg/kg; range is 91-100%; format: functional
Ovis aries [3] = assay: Tested for the anthelmintic efficacy against Oesphagostomum columbianum at 0.1 mg/kg; range is 91-100%; format: functional
Ovis aries [4] = assay: Tested for the anthelmintic efficacy against Ostertagia circumcincta at 0.1 mg/kg; range is 91-100%; format: functional
Ovis aries [5] = assay: Tested for anthelmintic efficacy against Haemonchus contortus at 0.1 mg/kg; range is 91-100%; format: functional
Ovis aries [6] = assay: Tested for the anthelmintic efficacy against Trichostrongylus axei at 0.1 mg/kg; range is 91-100%; format: functional
Ovis aries [7] = assay: Tested for the anthelmintic efficacy against Trichostrongylus colubriformis at 0.1 mg/kg; range is 91-100%; format: functional

| Compound | IC50 (Caenorhabditis elegans) | Mortality (Tetranychus urticae) | ED85 [1] | IC100 (Artemia salina) | Reduction (Ovis aries [2]) | Reduction (Ovis aries [3]) | Reduction (Ovis aries [4]) | Reduction (Ovis aries [5]) | Reduction (Ovis aries [6]) | Reduction (Ovis aries [7]) |
| --- | --- | --- | --- | --- | --- | --- | --- | --- | --- | --- |
| CCC(C)[C@H]1O[C@]2(CC[C@@H]1C)C[C@@H]1C[C@@H](C/C=C(\C)[C@@H](O[C@H]3C[C@H](OC)[C@@H](O[C@H]4C[C@H](OC)[C@H]([S+]([O-])CCO)[C@H](C)O4)[C@H](C)O3)[C@@H](C)/C=C/C=C3\CO[C@@H]4[C@H](O)C(C)=C[C@@H](C(=O)O1)[C@]34O)O2 (some centres not stated) | 0.188 ng/mL (≈ 0.198 nM) | 31% | 0.25 mg/kg | 870 ng/mL | – | – | – | – | – | – |
| CCC(C)[C@H]1O[C@]2(C=C[C@@H]1C)C[C@@H]1C[C@@H](C/C=C(\C)[C@@H](O[C@H]3C[C@H](OC)[C@@H](O[C@H]4C[C@H](OC)[C@@H](SCC(C)O)[C@H](C)O4)[C@H](C)O3)[C@@H](C)/C=C/C=C3\CO[C@@H]4[C@H](O)C(C)=C[C@@H](C(=O)O1)[C@]34O)O2 (some centres not stated) | 0.153 ng/mL (≈ 0.162 nM) | 88% | 0.125 mg/kg | 870 ng/mL | – | – | – | – | – | – |
| CCC(C)[C@H]1O[C@]2(C=C[C@@H]1C)C[C@@H]1C[C@@H](C/C=C(\C)[C@@H](O[C@H]3C[C@H](OC)[C@@H](O[C@H]4C[C@H](OC)[C@@H](SCCCO)[C@H](C)O4)[C@H](C)O3)[C@@H](C)/C=C/C=C3\CO[C@@H]4[C@H](O)C(C)=C[C@@H](C(=O)O1)[C@]34O)O2 (some centres not stated) | 0.153 ng/mL (≈ 0.162 nM) | 53% | 0.25 mg/kg | 870 ng/mL | – | – | – | – | – | – |
| CCC(C)[C@H]1O[C@]2(CC[C@@H]1C)C[C@@H]1C[C@@H](C/C=C(\C)[C@@H](O[C@H]3C[C@H](OC)[C@@H](O[C@H]4C[C@H](OC)[C@H](S(=O)(=O)CCO)[C@H](C)O4)[C@H](C)O3)[C@@H](C)/C=C/C=C3\CO[C@@H]4[C@H](O)C(C)=C[C@@H](C(=O)O1)[C@]34O)O2 (some centres not stated) | 0.119 ng/mL (≈ 0.123 nM) | 48% | 0.125 mg/kg | 650 ng/mL | 91% | 91% | 91% | 91% | 91% | 91% |
| CCC(C)[C@H]1O[C@]2(C=C[C@@H]1C)C[C@@H]1C[C@@H](C/C=C(\C)[C@@H](O[C@H]3C[C@H](OC)[C@@H](O[C@H]4C[C@H](OC)[C@@H]([S+]([O-])CCO)[C@H](C)O4)[C@H](C)O3)[C@@H](C)/C=C/C=C3\CO[C@@H]4[C@H](O)C(C)=C[C@@H](C(=O)O1)[C@]34O)O2 (some centres not stated) | 0.469 ng/mL (≈ 0.494 nM) | 69% | 0.063 mg/kg | 870 ng/mL | – | – | – | – | – | – |
| CCC(C)[C@H]1O[C@]2(C=C[C@@H]1C)C[C@@H]1C[C@@H](C/C=C(\C)[C@@H](O[C@H]3C[C@H](OC)[C@@H](O[C@H]4C[C@H](OC)[C@H]([S+]([O-])CCO)[C@H](C)O4)[C@H](C)O3)[C@@H](C)/C=C/C=C3\CO[C@@H]4[C@H](O)C(C)=C[C@@H](C(=O)O1)[C@]34O)O2 (some centres not stated) | > 1.27 ng/mL | 13% | 0.125 mg/kg | 1300 ng/mL | – | – | – | – | – | – |
| CCC(C)[C@H]1O[C@]2(C=C[C@@H]1C)C[C@@H]1C[C@@H](C/C=C(\C)[C@@H](O[C@H]3C[C@H](OC)[C@@H](O[C@H]4C[C@H](OC)[C@@H](SCCNC(C)=O)[C@H](C)O4)[C@H](C)O3)[C@@H](C)/C=C/C=C3\CO[C@@H]4[C@H](O)C(C)=C[C@@H](C(=O)O1)[C@]34O)O2 (some centres not stated) | 0.165 ng/mL (≈ 0.169 nM) | 63% | 0.063 mg/kg | 870 ng/mL | – | – | – | – | – | – |
| CCC(C)[C@H]1O[C@]2(C=C[C@@H]1C)C[C@@H]1C[C@@H](C/C=C(\C)[C@@H](O[C@H]3C[C@H](OC)[C@H](SCCO)[C@H](C)O3)[C@@H](C)/C=C/C=C3\CO[C@@H]4[C@H](O)C(C)=C[C@@H](C(=O)O1)[C@]34O)O2 (some centres not stated) | – | 94% | 0.063 mg/kg | 870 ng/mL | – | – | – | – | – | – |
| CCC(C)[C@H]1O[C@]2(C=C[C@@H]1C)C[C@@H]1C[C@@H](C/C=C(\C)[C@@H](O[C@H]3C[C@H](OC)[C@H](SC)[C@H](C)O3)[C@@H](C)/C=C/C=C3\CO[C@@H]4[C@H](O)C(C)=C[C@@H](C(=O)O1)[C@]34O)O2 (some centres not stated) | 0.422 ng/mL (≈ 0.556 nM) | 100% | 0.125 mg/kg | 6930 ng/mL | – | – | – | – | – | – |
| CCC(C)[C@H]1O[C@]2(C=C[C@@H]1C)C[C@@H]1C[C@@H](C/C=C(\C)[C@@H](O[C@H]3C[C@H](OC)[C@@H](O[C@H]4C[C@H](OC)[C@@H](S(=O)(=O)CC)[C@H](C)O4)[C@H](C)O3)[C@@H](C)/C=C/C=C3\CO[C@@H]4[C@H](O)C(C)=C[C@@H](C(=O)O1)[C@]34O)O2 (some centres not stated) | 0.123 ng/mL (≈ 0.13 nM) | 64% | 0.063 mg/kg | 870 ng/mL | – | – | – | – | – | – |
| CCC(C)[C@H]1O[C@]2(C=C[C@@H]1C)C[C@@H]1C[C@@H](C/C=C(\C)[C@@H](O[C@H]3C[C@H](OC)[C@@H](O[C@H]4C[C@H](OC)[C@H](SCC(C)O)[C@H](C)O4)[C@H](C)O3)[C@@H](C)/C=C/C=C3\CO[C@@H]4[C@H](O)C(C)=C[C@@H](C(=O)O1)[C@]34O)O2 (some centres not stated) | 0.216 ng/mL (≈ 0.228 nM) | 89% | 0.063 mg/kg | 870 ng/mL | – | – | – | – | – | – |
| CCC(C)[C@H]1O[C@]2(C=C[C@@H]1C)C[C@@H]1C[C@@H](C/C=C(\C)[C@@H](O[C@H]3C[C@H](OC)[C@@H](O[C@H]4C[C@H](OC)[C@@H](S(=O)(=O)CCO)[C@H](C)O4)[C@H](C)O3)[C@@H](C)/C=C/C=C3\CO[C@@H]4[C@H](O)C(C)=C[C@@H](C(=O)O1)[C@]34O)O2 (some centres not stated) | 0.351 ng/mL (≈ 0.364 nM) | 64% | 0.063 mg/kg | 870 ng/mL | – | – | – | – | – | – |
| CCC(C)[C@H]1O[C@]2(CC[C@@H]1C)C[C@@H]1C[C@@H](C/C=C(\C)[C@@H](O[C@H]3C[C@H](OC)[C@@H](O[C@H]4C[C@H](OC)[C@H](S(C)(=O)=O)[C@H](C)O4)[C@H](C)O3)[C@@H](C)/C=C/C=C3\CO[C@@H]4[C@H](O)C(C)=C[C@@H](C(=O)O1)[C@]34O)O2 (some centres not stated) | 0.084 ng/mL (≈ 0.0896 nM) | 64% | 0.125 mg/kg | 870 ng/mL | – | – | – | – | – | – |
| CCC(C)[C@H]1O[C@]2(C=C[C@@H]1C)C[C@@H]1C[C@@H](C/C=C(\C)[C@@H](O[C@H]3C[C@H](OC)[C@@H](O[C@H]4C[C@H](OC)[C@H](S(=O)(=O)CC)[C@H](C)O4)[C@H](C)O3)[C@@H](C)/C=C/C=C3\CO[C@@H]4[C@H](O)C(C)=C[C@@H](C(=O)O1)[C@]34O)O2 (some centres not stated) | 0.128 ng/mL (≈ 0.135 nM) | 68% | 0.031 mg/kg | 650 ng/mL | – | – | – | – | – | – |
| CCC(C)[C@H]1O[C@]2(C=C[C@@H]1C)C[C@@H]1C[C@@H](C/C=C(\C)[C@@H](O[C@H]3C[C@H](OC)[C@@H](O[C@H]4C[C@H](OC)[C@H](S(C)(=O)=O)[C@H](C)O4)[C@H](C)O3)[C@@H](C)/C=C/C=C3\CO[C@@H]4[C@H](O)C(C)=C[C@@H](C(=O)O1)[C@]34O)O2 (some centres not stated) | 0.132 ng/mL (≈ 0.141 nM) | 45% | 0.063 mg/kg | 430 ng/mL | 91% | 91% | 91% | 91% | 91% | 91% |
| CCC(C)[C@H]1O[C@]2(C=C[C@@H]1C)C[C@@H]1C[C@@H](C/C=C(\C)[C@@H](O[C@H]3C[C@H](OC)[C@@H](O[C@H]4C[C@H](OC)[C@H]([S+](C)[O-])[C@H](C)O4)[C@H](C)O3)[C@@H](C)/C=C/C=C3\CO[C@@H]4[C@H](O)C(C)=C[C@@H](C(=O)O1)[C@]34O)O2 (some centres not stated) | 0.262 ng/mL (≈ 0.285 nM) | 64% | 0.031 mg/kg | 870 ng/mL | 91% | 91% | 91% | 91% | 91% | 91% |
| CCC(C)[C@H]1O[C@]2(C=C[C@@H]1C)C[C@@H]1C[C@@H](C/C=C(\C)[C@@H](O[C@H]3C[C@H](OC)[C@@H](O[C@H]4C[C@H](OC)[C@@H]([S+](C)[O-])[C@H](C)O4)[C@H](C)O3)[C@@H](C)/C=C/C=C3\CO[C@@H]4[C@H](O)C(C)=C[C@@H](C(=O)O1)[C@]34O)O2 (some centres not stated) | – | – | 0.016 mg/kg | 430 ng/mL | 91% | 91% | 91% | 91% | 91% | 91% |
| CCC(C)[C@H]1O[C@]2(CC[C@@H]1C)C[C@@H]1C[C@@H](C/C=C(\C)[C@@H](O[C@H]3C[C@H](OC)[C@@H](O[C@H]4C[C@H](OC)[C@H]([S+](C)[O-])[C@H](C)O4)[C@H](C)O3)[C@@H](C)/C=C/C=C3\CO[C@@H]4[C@H](O)C(C)=C[C@@H](C(=O)O1)[C@]34O)O2 (some centres not stated) | 0.108 ng/mL (≈ 0.117 nM) | 77% | 0.063 mg/kg | 870 ng/mL | – | – | – | – | – | – |
| CCC(C)[C@H]1O[C@]2(C=C[C@@H]1C)C[C@@H]1C[C@@H](C/C=C(\C)[C@@H](O[C@H]3C[C@H](OC)[C@@H](O)[C@H](C)O3)[C@@H](C)/C=C/C=C3\CO[C@@H]4[C@H](O)C(C)=C[C@@H](C(=O)O1)[C@]34O)O2 (some centres not stated) [AVERMECTIN MS] | 0.81 ng/mL (≈ 1.11 nM) | 93% | 0.075 mg/kg | 430 ng/mL | – | – | – | – | – | – |
| CCC(C)[C@H]1O[C@]2(C=C[C@@H]1C)C[C@@H]1C[C@@H](C/C=C(\C)[C@@H](O[C@H]3C[C@H](OC)[C@@H](O[C@H]4C[C@H](OC)[C@@H](O)[C@H](C)O4)[C@H](C)O3)[C@@H](C)/C=C/C=C3\CO[C@@H]4[C@H](O)C(C)=C[C@@H](C(=O)O1)[C@]34O)O2 (some centres not stated) [AVERMECTIN] | 0.073 ng/mL (≈ 0.0836 nM) | 95% | 0.031 mg/kg | 400 ng/mL | 91% | 91% | 91% | 91% | 91% | 91% |
